Assay results as given in ChEMBL document CHEMBL5528001, “Synthetic product-based approach toward potential antileishmanial drug development” (Eur J Med Chem, 2024).

What was measured:
[1] = test system: Leishmania donovani; experiment: Antileishmanial activity against Leishmania donovani MHOM/ET/67/HU3 intracellular amastigotes infected in human THP-1 cells assessed as inhibition of parasite growth incubated for 72 hrs by resazurin based colorimetric assay; type: functional, organism-based; settings: MHOM/ET/67/HU3, THP-1, 72 h
[2] = test system: Leishmania donovani; experiment: Antileishmanial activity against Leishmania donovani infected in BALB/c mouse model assessed as reduction in parasite growth at 75 mg/kg, po administered for 5 consecutive days; type: functional; design: scale not given: the % may be the effect or the level left
[3] = test system: Leishmania braziliensis; experiment: Antileishmanial activity against Leishmania braziliensis promastigotes; type: functional, organism-based
[4] = test system: Leishmania major; experiment: Antileishmanial activity against Leishmania major promastigotes; type: functional, organism-based
[5] = Cytotoxicity against African green monkey Vero cells assessed as reduction in cell growth; type: toxicity, cell-based, Chlorocebus sabaeus
[6] = test system: Leishmania infantum; experiment: Antileishmanial activity against Leishmania infantum MHOM/BR/70/BH46 promastigotes assessed as reduction in parasite growth incubated for 72 hrs by resazurin staining based analysis; type: functional, organism-based; settings: MHOM/BR/70/BH46, 72 h
[7] = Cytotoxicity against African green monkey Vero cells assessed as reduction in cell viability measured after 96 hrs by MTS assay; type: toxicity, cell-based, Chlorocebus sabaeus
[8] = test system: Leishmania donovani; experiment: Antileishmanial activity against Leishmania donovani MHOM/IN/95/9515 promastigotes assessed as inhibition of parasite proliferation measured for 48 hrs by resazurin dye-based analysis relative to control; type: functional; design: scale not given: the % may be the effect or the level left
[9] = test system: Leishmania infantum; experiment: Antileishmanial activity against Leishmania infantum MON-1 promastigotes assessed as reduction in parasite viability measured after 48 hrs by MTT assay; type: functional, organism-based; settings: MON-1, 48 h
[10] = test system: HepG2; experiment: Antiproliferative activity against human HepG2 cells assessed as reduction in cell growth measured for 72 hrs by MTT assay; type: functional, cell-based; settings: HepG2, 72 h
[11] = test system: HepG2; experiment: Cytotoxicity against human HepG2 cells assessed as reduction in cell growth measured for 48 hrs by MTT assay; type: functional
[12] = Cytotoxicity against human THP-1 cells assessed as reduction in cell growth incubated for 3 days by resazurin dye based analysis; type: toxicity; settings: time 3 day
[13] = Cytotoxicity against HEK293 cells assessed as reduction in cell growth incubated for 3 days by resazurin dye based analysis; type: toxicity; settings: human, time 3 day
[14] = test system: Leishmania donovani; experiment: Antileishmanial activity against Leishmania donovani promastigotes assessed as inhibition of cell growth measured after 3 days by resazurin/alamar blue-staining based analysis; type: functional, organism-based; settings: 72 h
[15] = test system: Leishmania major; experiment: Antileishmanial activity against Leishmania major promastigotes assessed as reduction in parasite growth incubated for 48 hrs by MTT assay; type: functional, organism-based
[16] = Cytotoxicity against mouse J774.A1 cells assessed as reduction in cell viability by MTT assay; type: toxicity, cell-based
[17] = test system: Leishmania infantum; experiment: Antileishmanial activity against Leishmania infantum MHOM/BR/1972/LD intracellular amastigotes infected in mouse J774A.1 macrophages cells assessed as reduction in parasite viability after 72 hrs by MTT based analysis; type: functional, organism-based; settings: J774.A1, 72 h
[18] = Cytotoxicity against mouse Peritoneal macrophages assessed as reduction in cell viability incubated for 24 hrs by MTT assay; type: toxicity, cell-based, Peritoneal macrophage
[19] = test system: Leishmania infantum; experiment: Antileishmanial activity against Leishmania infantum promastigotes infected in BALB/c mouse macrophages assessed as reduction in parasite load in spleen at 7.7 mg/kg, po administered twice as day for 5 days relative to control; type: functional; design: scale not given: the % may be the effect or the level left; settings: time 5 day
[20] = test system: Leishmania infantum; experiment: Antileishmanial activity against Leishmania infantum promastigotes infected in BALB/c mouse macrophages assessed as reduction in parasite load in liver at 7.7 mg/kg, po administered twice as day for 5 days relative to control; type: functional; design: scale not given: the % may be the effect or the level left; settings: time 5 day
[21] = test system: Leishmania tropica; experiment: Antileishmanial activity against Leishmania tropica promastigotes incubated for 24 hrs measured by alamar blue staining based fluorescence analysis; type: functional, organism-based
[22] = test system: Leishmania infantum; experiment: Antileishmanial activity against Leishmania infantum MCAN/ES/89/IPZ229/1/89 axenic amastigotes assessed as reduction in parasite growth treated for 24 hrs by PI staining based flow cytometry; type: functional, organism-based; settings: MCAN/ES/89/IPZ229/1/89, 24 h
[23] = Selectivity index, ratio of CC50 for human HepG2 cells to EC50 for GFP-expressing Leishmania infantum intracellular amastigotes infected in human THP-1 derived macrophage cells; type: toxicity, cell-based; settings: read-out: Ratio CC50/EC50
[24] = test system: Trypanosoma brucei; experiment: Antitrypanosomal activity against Trypanosoma brucei assessed as parasite growth inhibition; type: functional, organism-based
[25] = test system: Leishmania infantum; experiment: Antileishmanial activity against Leishmania infantum axenic amastigotes (MCAN/ES/89/IPZ229/1/89) assessed as inhibition of parasite proliferation measured after 24 hrs by resazurin dye based fluorescence analysis; type: functional, organism-based; settings: MCAN/ES/89/IPZ229/1/89, 24 h
[26] = test system: Leishmania braziliensis; experiment: Antileishmanial activity against Leishmania braziliensis MHOM/BR/75/M2904 promastigotes assessed as reduction in cell viability incubated for 48 hrs by resazurin staining based assay; type: functional, organism-based; settings: MHOM/BR/75/M2904, 48 h
[27] = test system: Leishmania donovani; experiment: Antileishmanial activity against Leishmania donovani promastigotes infected in golden hamster assessed as reduction in parasite load in spleen at 20 mg/kg administered twice per week for 4 weeks relative to control; type: functional; design: scale not given: the % may be the effect or the level left
[28] = test system: Leishmania donovani; experiment: Antileishmanial activity against Leishmania donovani promastigotes infected in golden hamster assessed as reduction in parasite load in liver at 20 mg/kg administered twice per week for 4 weeks relative to control; type: functional; design: scale not given: the % may be the effect or the level left
[29] = test system: Leishmania amazonensis; experiment: Antileishmanial activity against Leishmania amazonensis MHOM/BR/1989/166MJO promastigotes infected in mouse peritoneal macrophage assessed as inhibition of parasite growth measured for 24 hrs by MTT assay; type: functional, organism-based; settings: Peritoneal macrophage cell
[30] = test system: Leishmania amazonensis; experiment: Antileishmanial activity against Leishmania amazonensis MHOM/BR/71973/M2269 promastigotes assessed as reduction in parasite viability measured for 48 hrs PI staining based flow cytometry analysis; type: functional, organism-based; settings: MHOM/BR/71973, 48 h
[31] = test system: Leishmania infantum; experiment: Antileishmanial activity against Leishmania infantum MHOM/BR/1972/BH46 promastigotes assessed as reduction in parasite viability measured for 48 hrs by PI staining based flow cytometry analysis; type: functional, organism-based; settings: MHOM/BR/1972/BH46, 48 h
[32] = test system: Leishmania infantum; experiment: Antileishmanial activity against Leishmania infantum MHOM/BR/1972/BH46 amastigotes assessed as reduction in cell viability measured for 48 hrs by PI staining based flow cytometry analysis; type: functional, organism-based; settings: MHOM/BR/1972/BH46, 48 h
[33] = test system: Leishmania amazonensis; experiment: Antileishmanial activity against Leishmania amazonensis promastigotes assessed as reduction in parasite viability after 72 hrs by CCK-8 assay; type: functional, organism-based
[34] = test system: Leishmania braziliensis; experiment: Antileishmanial activity against Leishmania braziliensis promastigotes assessed as reduction in parasite viability after 72 hrs by CCK-8 assay; type: functional, organism-based
[35] = test system: Leishmania donovani; experiment: Antileishmanial activity against Leishmania donovani Ag83 promastigotes infected in BALB/c mouse assessed as reduction in parasite infection at 5 to 20 mg/kg by propidium iodide staining analysis; type: functional, organism-based

`CC(C)Oc1cc(OCCCCCCCCn2ccnc2)ccc1NC(=N)c1ccccn1` showed an IC50 [1] of 0.53 µM and an Activity [2] of 33%.
`Cc1cc(OCCCCCNC(C)(C)C)cc2oc3cc(OCCCCCNC(C)(C)C)cc(O)c3c(=O)c12` gave an IC50 [3] of 2.4 µM, an IC50 [4] of 5.4 µM and an IC50 [5] of 15.5 µM.
`Cc1cc(Br)cc2c(/C=N/NC(=S)Nc3ccccc3)c[nH]c12` gave an IC50 [6] of 5.6 µM.
Work on `O=C(Cn1cnc2cc(Cl)ccc2c1=O)n1cnc2cc(Cl)ccc2c1=O` yielded an IC50 at 96 h [7] of 0.03 µM and an Activity [8] of 29%.
Work on `CCOC(=O)c1cc2c([nH]c3ccccc32)c(-c2cc3ccccc3n3nnnc23)n1` yielded an EC50 [9] of 3.36 µM, an EC50 [10] of 10.2 µM and a CC50 [11] of 27.9 µM.
Work on `COc1cc(/C=C2/Oc3cc(O)ccc3C2=O)cc(OC)c1` yielded a CC50 at 72 h [12] of 96.9 µM and a CC50 at 72 h [13] of over 200 µM.
Work on `O=c1c2ccccc2nc(/C=C/c2ccc([N+](=O)[O-])cc2)n1-c1ccccc1` yielded an IC50 [14] of 0.02 µM.
Work on `COc1ccc(C(=O)NC(=S)Nc2nc(-c3ccccc3)c(C)s2)cc1` yielded an IC50 [15] of 84.8 µM.
For `NC(=S)N/N=C(/C=C/c1cccnc1)c1cccc(NC(=O)Nc2ccc(Cl)cc2)c1`, the IC50 [16] was 3.81 µM.
For `NC(=O)N/N=C/c1ccc(Oc2no[n+]([O-])c2-c2ccccc2)cc1`, the EC50 [17] was 3.6 µM, the CC50 at 24 h [18] was 500 µM and the Activity [19] was 90%. It also gave an Activity [20] of 90%.
With `Nc1ccnn1C(=O)C1CCC2(CC1)OOC1(O2)C2CC3CC(C2)CC1C3` (stereo not given) the IC50 [21] was 219 µM, the IC50 [22] was 219 µM and the selectivity ratio [23] was under 5.
In the case of `CCCc1cn(CCN2CCN(C(=O)c3c(C)nc4ccc(C)cn34)CC2)nn1`, the IC50 [24] is reported as 0.72 µM.
For `CCCCCCCCCn1cc(COC(C)=O)[n+](C)n1`, the IC50 [25] was 5.36 µM, the IC50 [26] was 4.55 µM and the Activity [27] was 59.8%. For the same compound, the Activity [28] was 26.88%.
With `COc1cc(C(=O)/C=C/c2ccc([N+](=O)[O-])cc2)c(C(C)=O)c2c(OC)cccc12` the IC50 [29] was 18.5 µM.
`C=CCc1cc(OC)c2oc(=O)c(C(=O)c3ccccc3)cc2c1` gave an IC50 [30] of 82 µM, an IC50 [31] of 26.7 µM and an IC50 [32] of 18 µM.
Compound `COc1cc(OC)c(C(=O)/C=C/c2cccc(C)c2)c([N+](=O)[O-])c1` has an EC50 [33] of 0.42 µM and an EC50 [34] of 1.45 µM.
With `O=C(Nc1cncs1)C(c1ccccc1)c1ccc(Cl)cc1` (stereo not given) the IC50 [35] was 3.2 µM.
